Measured values published in PMC12066977, “Alkyl Tail Variation on Chalcone‐Based Quaternary Pyridinium Salts as Rule‐of‐Thumb for Antimicrobial Activity” (Archiv Der Pharmazie, 2025).
pIC50: −log10 of the molar value. Values after ≈ are worked out from the molar mass of the structure shown.

What was measured:
[1] = test system: S. aureus ATCC 25923, E. coli ATCC 25922, C. albicans ATCC 10231; assay: Broth microdilution antimicrobial assay, statements pooled over the three strains; format: cell-based; details: stated for S. aureus, E. coli and C. albicans together; read-out: MIC toward the three selected strains
Method: The antimicrobial activity of the compounds was assessed by determining the Minimum Inhibitory Concentration (MIC) by a well‐established broth microdilution procedure in microtiter plates and in compliance with the Clinical and Laboratory Standards Institute (CLSI) guidelines.
In short, microbial inocula were prepared at 0.5 McFarland in PBS and, subsequently, bacterial suspensions were diluted 1:200 in Mueller–Hinton broth (Sigma‐Aldrich, St. Louis, MO, USA), while fungal inoculum was diluted 1:20 in RPMI‐1640 medium (Gibco®, ThermoFisher Scientific Inc., Waltham, MA, USA), containing glucose 2%, 0.3% levo‐glutamine buffered to pH 7.0 with 0.165 M 3‐(N‐morpholino) propanesulfonic acid (MOPS). A total of 100 µL of these microbial suspensions was introduced into a 96‐well microplate and incubated with 100 µL of the compounds, two‐fold serially diluted in the range of 100–0.19 µM. Positive controls (microbial suspensions in regular media), negative controls (only compounds), and solvent controls (microbial suspensions incubated with DMSO dilutions) were included in the tests. The plate was incubated at 37°C for 24 h, and subsequently the optical density at 630 nm (OD630nm) was spectrophotometrically measured. Experiments were carried out in triplicate in three biological replicates. […]

[2] = Cell viability and proliferation assay (WST8/CCK-8); format: cell-based; details: African green monkey, Vero cells (ATCC CCL-81), 48 h treatment, CCK-8; read-out: CC50 [95% CI] Vero cells
Method: Vero cell line (ATCC CCL‐81) was selected as a model system to investigate the overall effect of chalcones on non‐malignant mammalian cells. […] For experiments, cells were seeded into 96‐well plates at 10^4 cells/well and incubated at 37°C for 24 h. Following washes with PBS, the cell monolayer was incubated with 100 µL of medium containing the twofold serial dilutions of the compounds. Both untreated cells and cells incubated with medium containing solvent dilutions were included in each experiment as controls. The cell viability was assessed by a WST8‐based assay according to the manufacturer's instructions (CCK‐8, Cell Counting Kit‐8, Dojindo Molecular Technologies, Rockville, MD, USA). After 48 h of incubation, culture medium was removed from each well, the monolayer was washed with PBS, and 100 µL of fresh medium containing 10 µL of CCK‐8 solution was added. Following a 2 h incubation at 37°C, the OD450nm was read, and data were expressed as the percentage of cell viability relative to the untreated controls. The CC50 was obtained on the corresponding dose–response curves generated as previously reported for IC50 values. Experiments were carried out in triplicate in three biological replicates.

C. albicans ATCC 10231 = assay: Broth microdilution antimicrobial assay (MIC, IC50); format: cell-based; details: Candida albicans, 24 h; for pIC50: ATCC10231, 50% growth inhibition, read-out: IC50 [95% confidence interval] Candida albicans; for MIC: ATCC10231, broth microdilution, 37°C
Method: (§1) Reference strains of Staphylococcus aureus (ATCC 25923), Escherichia coli (ATCC 25922), and Candida albicans (ATCC 10231) were used in this study as microbial models. These strains were purchased from the American Type Culture Collection (ATCC); bacterial cultures were routinely grown on 5% blood agar plate, while fungal cultures on Sabouraud Dextrose Agar (Biolife […]., Milan, Italy). […] In short, microbial inocula were prepared at 0.5 McFarland in PBS and, subsequently, bacterial suspensions were diluted 1:200 in Mueller-Hinton broth (Sigma-Aldrich, St. Louis, MO, USA), while fungal inoculum was diluted 1:20 in RPMI-1640 medium (Gibco®, ThermoFisher Scientific Inc., Waltham, MA, USA), containing glucose 2%, 0.3% levo-glutamine buffered to pH 7.0 with 0.165 M 3-(N-morpholino) propanesulfonic acid (MOPS). A total of 100 μL of these microbial suspensions was introduced into a 96-well microplate and incubated with 100 μL of the compounds, two-fold serially diluted in the range of 100-0.19 μM. Positive controls (microbial suspensions in regular media), negative controls (only compounds), and solvent controls (microbial suspensions incubated with DMSO dilutions) were included in the tests. The plate was incubated at 37°C for 24 h, and subsequently the optical density at 630 nm (OD630nm) was spectrophotometrically measured. Experiments were carried out in triplicate in three biological replicates. […] Statistical analysis was carried out by using GraphPad Prism version 9.4.1 for Windows (GraphPad Software, San Diego, California USA, www.graphpad.com). ^a MIC (Minimum Inhibitory Concentration) were determined in vitro by means of a standardized microdilution assay, in compliance with the Clinical and laboratory Standard Institute (CLSI) guidelines (30). Microbial suspensions were prepared at 0.5 McFarland in PBS, then diluted in the media and transferred in a 96 micro-well plate together with the serially 2-fold dilutions of the compounds. After 24h of incubation at 37°C, microbial growths were evaluated by measuring the Optical Density at 600 nm, then percentage values were obtained as relative to the positive controls (microbial suspensions in regular media).

E. coli ATCC 25922 = assay: as above; format: cell-based; details: Escherichia coli, 24 h; for pIC50: ATCC25922, 50% growth inhibition, read-out: IC50 [95% confidence interval] Escherichia coli; for MIC: ATCC25922, broth microdilution, 37°C
Method: as §1

S. aureus ATCC 25923 = assay: as above; format: cell-based; details: Staphylococcus aureus; for pIC50: ATCC25923, 50% growth inhibition, 24 h, read-out: IC50 [95% confidence interval] Staphylococcus aureus; for MIC: ATCC25923, 24 h, broth microdilution, 37°C
Method: as §1

[3] = test system: human red blood cells (hRBCs); assay: Hemolytic activity assay; format: cell-based; details: 25 µM, 90 min, 37°C
Method: The hemolytic activity of some selected compounds was evaluated as the amount of hemoglobin released by the disruption of human red blood cells (hRBCs). For the experiments, fresh hRBCs were collected by centrifugation at 1500g for 10 min, washed three times with PBS, and resuspended to a final concentration of 4% w/v hRBCs in PBS. Then, 100 µL of hRBCs suspension and an equal volume of the twofold dilutions of the antimicrobial peptides were mixed in a 96‐well plate and incubated for 90 min at 37°C. After centrifugation at 1000g for 5 min, the supernatants were transferred into a clear 96‐well plate, and OD405nm was read. Untreated hRBCs (incubated with PBS) and hRBCs incubated with 1% Triton X‐100 were employed as negative and positive controls, respectively. The hemolysis percentage was calculated as [OD405nm (sample) − OD4_05nm (negative control)]/[OD405nm (positive control) − OD405nm (negative control)] × 100. Minimal hemolytic concentrations (MHCs) were defined as the compound concentration causing 10% hemolysis. Three independent experiments were performed in triplicate.

E. coli = assay: Colistin association assay; format: cell-based, Escherichia coli; details: colistin at sub-inhibitory concentration (MIC/8 = 0.027 µM)
Method: This is a confirmation of the ability of these new QPySs to also affect Gram‐negative proliferation once they pass through the OM.
The dry powder of the chalcone‐based QPySs was resuspended in dimethylsulfoxide (DMSO) at 20 mM and used as stock solutions. For biological investigations, compounds were used in the range 100–0.78 µM, and the solvent in the corresponding percentage range. The following commercially available antimicrobials and toxic clinical drugs were purchased from Sigma‐Aldrich (St. Louis, MO, USA), dissolved in water, and used as reference controls. Gentamicin and ampicillin were used in the range 107.69–0.82 µM and 143.23–1.12 µM, respectively; the colistin was used at 0.03 µM in association with the chalcone‐based QASs with E. coli. The fluconazole was used in the assays with C. albicans in the range 3.27–0.03 µM. […]
In short, microbial inocula were prepared at 0.5 McFarland in PBS and, subsequently, bacterial suspensions were diluted 1:200 in Mueller–Hinton broth (Sigma‐Aldrich, St. Louis, MO, USA), while fungal inoculum was diluted 1:20 in RPMI‐1640 medium (Gibco®, ThermoFisher Scientific Inc., Waltham, MA, USA), containing glucose 2%, 0.3% levo‐glutamine buffered to pH 7.0 with 0.165 M 3‐(N‐morpholino) propanesulfonic acid (MOPS). […] The plate was incubated at 37°C for 24 h, and subsequently the optical density at 630 nm (OD630nm) was spectrophotometrically measured. […]

| MIC [1] | pIC50 (C. albicans ATCC 10231) | MIC (C. albicans ATCC 10231) | pIC50 (E. coli ATCC 25922) | MIC (E. coli ATCC 25922) | pIC50 (S. aureus ATCC 25923) | MIC (S. aureus ATCC 25923) | Structure (SMILES) | CC50 at 48 h [2] | hemolytic activity [3] | MIC Escherichia coli in association with colistin (E. coli) |
| --- | --- | --- | --- | --- | --- | --- | --- | --- | --- | --- |
| ≥ 50 µM | 4.02 | 100 µM | 4.34 | 50 µM | 4.23 | 50 µM | C#CCOc1ccc(C(=O)/C=C/c2ccc[n+](CCCCCC[n+]3cccc(/C=C/C(=O)c4ccc(OCC#C)cc4OCC#C)c3)c2)c(OCC#C)c1 [Compound 10, 1,1′‐(Hexane‐1,6‐diyl)bis{3‐[(E)‐3‐(2,4‐bis‐prop‐2‐yn‐1‐yloxyphenyl)‐3‐oxoprop‐1‐en‐1‐yl]pyridin‐1‐ium} bromide] | > 100 µM | – | – |
| – | 5.80 | 3.12 µM | 5.23 | 6.25 µM | 5.79 | 3.12 µM | C#CCOc1ccc(C(=O)/C=C/c2ccc[n+](CCCCCCCCCCCC)c2)c(OCC#C)c1.[Br-] [Compound 5, (E)‐3‐{3‐[2,4‐Bis(prop‐2‐yn‐1‐yloxy)phenyl]‐3‐oxoprop‐1‐en‐1‐yl}‐1‐dodecylpyridin‐1‐ium bromide] | 14 µM | 40.9% | – |
| – | 5.24 | 6.25 µM | – | > 100 µM | 5.38 | 12.5 µM | C#CCOc1ccc(C(=O)/C=C/c2ccc[n+](CCCCCCCCCCCCCCCC)c2)c(OCC#C)c1 [Compound 7, (E)‐3‐{3‐[2,4‐Bis(prop‐2‐yn‐1‐yloxy)phenyl]‐3‐oxoprop‐1‐en‐1‐yl}‐1‐hexadecylpyridin‐1‐ium] | 5.38 µM | – | – |
| – | 4.28 | > 100 µM | – | > 100 µM | 4.85 | 100 µM | C#CCOc1ccc(C(=O)/C=C/c2ccc[n+](CCCCCCCCCCCCCCCCCC)c2)c(OCC#C)c1 [Compound 8, (E)‐3‐{3‐[2,4‐Bis(prop‐2‐yn‐1‐yloxy)phenyl]‐3‐oxoprop‐1‐en‐1‐yl}‐1‐octadecylpyridin‐1‐ium bromide] | 5.73 µM | – | – |
| – | 4.52 | 50 µM | 4.96 | 12.5 µM | 5.58 | 6.25 µM | C#CCOc1ccc(C(=O)/C=C/c2ccc[n+](CCCCCCCC)c2)c(OCC#C)c1 [Compound 3, (E)‐3‐{3‐[2,4‐Bis(prop‐2‐yn‐1‐yloxy)phenyl]‐3‐oxoprop‐1‐en‐1‐yl}‐1‐octylpyridin‐1‐ium bromide] | 47 µM | – | – |

The next lines start with the molecule.

| Structure (SMILES) | MIC [1] | pIC50 (C. albicans ATCC 10231) | MIC (C. albicans ATCC 10231) | pIC50 (E. coli ATCC 25922) | MIC (E. coli ATCC 25922) | pIC50 (S. aureus ATCC 25923) | MIC (S. aureus ATCC 25923) | CC50 at 48 h [2] | hemolytic activity [3] | MIC Escherichia coli in association with colistin (E. coli) |
| --- | --- | --- | --- | --- | --- | --- | --- | --- | --- | --- |
| C#CCOc1ccc(C(=O)/C=C/c2ccc[n+](CCCCCC)c2)c(OCC#C)c1.[Br-] [Compound 2, (E)‐3‐{3‐[2,4‐Bis(prop‐2‐yn‐1‐yloxy)phenyl]‐3‐oxoprop‐1‐en‐1‐yl}‐1‐hexylpyridin‐1‐ium bromide] | – | 4.16 | 100 µM | – | > 100 µM | 4.46 | 50 µM | > 100 µM | – | 50 µM |
| OC(Cn1cncn1)(Cn1cncn1)c1ccc(F)cc1F [FLC, fluconazole, reference compound] | – | 6.64 | 0.82 µM (≈ 0.251 µg/mL) | – | – | – | – | – | – | – |
| CNC(C)C1CCC(N)C(OC2C(N)CC(N)C(OC3OCC(C)(O)C(NC)C3O)C2O)O1 (stereo not shown) [GEN, gentamicin, reference compound] | – | – | – | 5.21 | 13.1 µM (≈ 6.25 µg/mL) | 5.40 | 6.54 µM (≈ 3.12 µg/mL) | – | – | – |
| COc1cccc2c1C(=O)c1c(O)c3c(c(O)c1C2=O)C[C@@](O)(C(=O)CO)C[C@@H]3O[C@H]1C[C@H](N)[C@H](O)[C@H](C)O1 [DOX, doxorubicin, reference compound] | – | – | – | – | – | – | – | 70.6 µM | – | – |
